Measurements: EP0529636B1, “Novel isatinoxime derivatives, their preparation and use” (NEUROSEARCH A/S, priority 1991, dated 1993)

Experiments:
[1] = target: AMPA ((RS)-α-amino-3-hydroxy-5-methyl-4-isoxazolepropionic acid) binding site; assay: AMPA binding assay (T. Honoré et al., Neuroscience Letters 54, 27-32 (1985))
Experimental: In the same assay 1,2,3,6,7,8-hexahydro-3-(hydroxyimino)-N,N,7-trimethyl-2-oxobenzo[2,1-b:3,4-c']dipyrrole-5-sulfonamide has an IC50 of 0.3 µM.

[2] = tested on: AMPA-induced clonic seizures; assay: AMPA-induced clonic seizures (AMPA seizure test); format: in vivo, female NMRI mice; settings: Mus musculus, iv; test compound i.v. 5 min before 0.3 µg icv AMPA; dose inhibiting 50% of the mice from having clonic seizures
Experimental: AMPA given icv (intracerebroventricular) (15 µg/kg) NMRI to mice induces clonic seizures which should be inhibited by non-NMDA receptor excitatory amino acid antagonists.
Test compound was given i.v. 5 min (or p.o. 30 min) before a 0.3 µg icv administration of AMPA to 10 female NMRI mice (weighing 24-26 g) per dose. The number of mice experiencing clonic seizures within the next 5 min was noted. An ED50 value was calculated as the dose inhibiting 50% of the mice from having clonic seizures.

CN1Cc2c(S(=O)(=O)N(C)C)cc3c(c2C1)NC(=O)C3=NO [1,2,3,6,7,8-hexahydro-3-(hydroxyimino)-N,N,7-trimethyl-2-oxobenzo[2,1-b:3,4-c']dipyrrole-5-sulfonamide] gave an IC50 [1] of 0.3 µM.

In the case of CN1Cc2ccc3c(c2C1)NC(=O)C3=NO [7-methyl-1,6,7,8-tetrahydrobenzo[2,1-b:3,4-c']dipyrrole-2,3-dione-3-oxime], the IC50 [1] is reported as 1 µM and the ED50 [2] is reported as 8 mg/kg.

O=C1CCCc2c3c(cc([N+](=O)[O-])c2N1)C(=NO)C(=O)N3 [5-nitro-1H,6H-2,3,7,8,9,10-hexahydro-2,3,7-trioxo-azepino[2,3-g]indole-3-oxime] gave an IC50 [1] of 4 µM.
